Laboratory results as given in patent US20110306137A1, “METHODS AND COMPOSITIONS FOR MODULATING DIFFERENTIATION OF PLURIPOTENTIAL CELLS” (priority 2007, published 2011).

Columns and labels:
DRCs = assay: Osteogenic differentiation of DRCs with DAPT; type: cell-based, human; settings: presence of BMP6
Experimental: (§1) Clustered Jag1/Fc was added to cultures at a final concentration of 5 μg/ml Jag1/Fc and 50 μg/ml antibody. Control cultures received only the antibody. Additional cultures received Jag1/Fc and anti-Fc as above, along with 5 μM N—[N-(3,5-Difluorophenacetyl)-L-alanyl]-S-phenylglycine t-butyl ester (DAPT), a […]-secretase inhibitor. Stock solutions of 2 mM DAPT in DMSO were obtained from Sigma-Aldrich, St. Louis, Mo. […]-secretase is a protease that, upon activation of transmembrane Notch protein by a Notch ligand, cleaves the Notch protein at a site that allows release of the Notch intracellular domain. Certain cultures also included BMP-6 (final concentration 500 ng/ml), as described in Example 5.
(§2) After 10 days in culture, cells were fixed in methanol, stained with Alizarin Red and examined by microscopy as described in Example 5.

MASCs [1] = assay: Osteogenic differentiation of MASCs with Notch activation by clustered Jag1/Fc, with or without DAPT; type: cell-based, human; settings: for effect on Jagged stimulation of osteogenesis: 5 μM DAPT
Experimental: MASCs (prepared essentially as described in Example 1) were plated at 10^4 cells/well in 96-well plates in […]MEM (Mediatech, Herndon, Va.) supplemented with 10% Fetal Bovine Serum (FBS, HyClone, Logan Utah) and cultured overnight. The next day, cells were transferred to osteogenic differentiation medium (composition described in Example 5).
During the differentiation procedure, certain batches of cells were subjected to Notch activation via the Notch ligand Jagged. A fusion between the extracellular domain of the rat Jagged1 protein and the Fc region of human IgG (Jag1/Fc) was obtained from R&D Systems (Minneapolis, Minn.; Catalogue No. 599-JG), and the lyophilized preparation was reconstituted to a concentration of 1 mg/ml in PBS containing 0.1% (w/v) bovine serum albumin.
The chimeric Jag1/Fc protein was “clustered” by preincubation with a ten-fold weight excess of goat anti-human Fc (Sigma, St. Louis Mo.). Before use, the antibody solution (2 mg/ml) was dialyzed overnight, with three changes, against PBS to remove sodium azide. The volume of antibody solution was not changed by dialysis. For clustering, Jag1/Fc (1 mg/ml in PBS+0.1% BSA) and anti-human Fc (2 mg/ml in PBS) were mixed and incubated at room temperature for 40 min prior to addition to the cell cultures.
as §1, §2

MASCs [2] = assay: Adipogenic differentiation of MASCs with clustered Jag1/Fc, DAPT, BMP6; type: cell-based, human
Experimental: MASCs were prepared essentially as described in Example 1. Culture in adipogenic differentiation medium was as described in Example 6. Treatment of cells with Anti-Fc and Clustered Jag1/Fc were as described in Example 7. Fixation, staining with Oil Red O and analysis of adipogenic differentiation were as described in Example 6.

WISP1 = assay: RT2 Profiler PCR Array Human Notch Signaling Pathway; type: cell-based; settings: Jag-activated MASCs compared to MASCs
Experimental: (§3) The expression of a number of genes involved in Notch signaling, and in signaling pathways that interact with the Notch pathway (Wnt, Shh), was compared in DRCs and MASCs, using a commercial array (RT^2 Profiler PCR Array Human Notch Signaling Pathway plate, SA Biosciences No. PAHS-059F). The genes that were analyzed are shown in Table 2 (taken from SA Biosciences online Catalogue). Notch pathway members include genes encoding Notch ligands, enzymes that modify the Notch protein and various transcriptional regulatory proteins that control the expression of the Notch pathway members. Notch pathway targets are genes whose expression is either directly or indirectly regulated by Notch activation. Wnt pathway members are Wnt ligands or proteins that participate in WNT-mediated signaling pathways. The Wnt pathway was investigated because of known crosstalk between the Notch and Wnt signaling pathways, and because it is involved in osteogenic differentiation, which is inhibited in DRCs.
(§4) MASCs and DRCs, prepared and frozen as described in Examples 1-3, were thawed (Example 4), grown for 4-7 days in alpha-MEM/10% FBS/pen-strep, then replated into 10-cm Petri dishes at a concentration of 0.5×10^6 cells/dish, in duplicate. After re-plating, cells were grown for 4 days to allow intracellular levels of endogenous NICD, activated by trypsinization, to return to basal. At the end of this period, culture medium was carefully aspirated, the cells were lysed in 400 μl RLT Buffer (Qiagen, Valencia, Calif.), and the lysate was scraped from the plate.
(§5) As a control, MASCs that had been exposed to clustered soluble Jagged1 protein, to activate the Notch signaling pathway (see Example 7), were also analyzed and compared to MASCs.
(§6) The lysate was homogenized using a QiaShredder (Qiagen, Valencia, Calif.). The homogenate was mixed with ethanol, and the mixture was applied to a RNeasy column (Qiagen, Valencia, Calif.) and processed according to the manufacturer's instructions. The eluate was treated with a DNA-Free™ kit (Ambion, Austin, Tex.), according to the manufacturer's protocol, for elimination of genomic DNA.
(§7) RNA concentration and purity was assayed on Nanodrop spectrophotometer (Thermo Scientific, Wilmington, Del.). […]
(§8) cDNA samples, synthesized as described above, were diluted and added to RT^2 SYBR Green qPCR Master Mix (SA Biosciences) according to the manufacturer's recommendations. […] SYBR green fluorescence, normalized to controls also present on the array, is used a s a measure of mRNA level.
(§9) Results were analyzed using analysis tools provided by SA Biosciences, assigning results from MASCs to the “Control” field and DRC results to the “Test” field, to obtain figures for relative changes in expression for the genes assayed. […]

CCND1 = assay: as above; type: cell-based; settings: Jag-activated MASCs compared to MASCs; two-fold criteria
Experimental: as §3, §4, §5, §6, §7, §8, §9

HES1 = assay: as above; type: cell-based; settings: Jag-activated MASCs compared to MASCs
Experimental: as §3, §4, §5, §6, §7, §8, §9

HR = assay: as above; type: cell-based; settings: Jag-activated MASCs compared to MASCs
Experimental: as §3, §4, §5, §6, §7, §8, §9

[3] = test system: genes involved in Notch signaling; assay: RT2 Profiler PCR Array Human Notch Signaling Pathway, number of genes altered; type: cell-based; settings: Jag-activated MASCs compared to MASCs; 84 genes tested
Experimental: as §3, with “Wnt pathway members are Wnt ligands or proteins that participate in WNT-mediated signaling pathways. The Wnt pathway was investigated because of known crosstalk between the Notch and Wnt signaling pathways, and because it is involved in osteogenic differentiation, which is inhibited in DRCs.” left out
As a control, MASCs that had been exposed to clustered soluble Jagged1 protein, to activate the Notch signaling pathway (see Example 7), were also analyzed and compared to MASCs. […]
as §8, §9

[4] = test system: osteogenic differentiation; assay: Osteogenic differentiation potential assay (Alizarin Red staining); type: cell-based, human; settings: BMP-6 500 ng/ml; MASCs, DRCs, mock DRCs
Experimental: For assay of osteogenic differentiation potential, cells (MASCs, DRCs or mock DRCs) were plated at 10^4 cells/well in 96-well plates in […]MEM (Mediatech, Herndon, Va.) supplemented with 10% Fetal Bovine Serum (FBS, HyClone, Logan Utah) and cultured overnight.
The next day, the culture medium was replaced with DMEM (Mediatech, Herndon, Va.) containing high glucose, pyruvate, glutamine and 10% FBS supplemented with 50 μg/ml Ascorbic acid (L-ascorbic acid 2-phosphate, Wako Chemical, Ltd., Japan, added freshly before use), 10 mM β-glycerophosphate (Sigma-Aldrich, St. Louis, Mo.), and 100 nM Dexamethasone (Sigma-Aldrich, St. Louis, Mo.). This “osteogenic differentiation medium” was changed every 3-4 days.
Osteogenic differentiation assays were conducted in the absence or presence of recombinant human bone morphogenetic protein 6 (BMP-6; R&D Systems, Minneapolis, Minn.), at a concentration of 500 ng/ml.
On day 14 or 17 after the transfer of cells into osteogenic differentiation medium, cultures were assayed for the presence of osteocytes by Alizarin Red staining. Cells were fixed by adding 100% methanol to the wells and incubating on ice for 3 min. The wells were then rinsed with water, and 40 mM alizarin red S (Sigma-Aldrich, St. Louis, Mo.), pH 4.2 was added. […]

[5] = test system: adipogenic differentiation; assay: Adipogenic differentiation potential assay (Oil Red O staining); type: cell-based, human; settings: BMP-6 100 ng/ml; day 17-21
Experimental: For assay of adipogenic differentiation potential, cells were plated at 10^4 cells/well in 96-well plates in […]MEM (Mediatech, Herndon, Va.) supplemented with 10% Fetal Bovine Serum (FBS, HyClone, Logan Utah) and cultured overnight.
The next day, the culture medium was replaced with DMEM (Mediatech, Herndon, Va.) containing high glucose, pyruvate, glutamine and 10% FBS supplemented with 1 μM Dexamethasone, […] 1-methyl-3 isobutylxanthine, 100 μM indomethacin and 10 μg/ml insulin (all supplements from Sigma-Aldrich, St. Louis, Mo.). This “adipogenic differentiation medium” was changed every 3-4 days.
Adipogenic differentiation assays were conducted in the absence or presence of recombinant human bone morphogenetic protein 6 (BMP-6; R&D Systems, Minneapolis, Minn.) at a concentration of 100 ng/ml.
On day 17-21 after transfer of cells into adipogenic differentiation medium, cells were tested for adipocytic differentiation by staining with Oil Red O. Cells were fixed by adding 10% formalin to the wells and incubating for 30-60 min at room temperature. Wells were then washed with 60% isopropanol and allowed to dry completely. Oil Red O working solution was freshly prepared from Oil Red stock solution (3.5 mg/ml in isopropanol) by diluting it 3:2 in water and filtering. Staining was conducted for 10 min; and the wells were then washed extensively with water. […]

C[C@H](NC(=O)Cc1cc(F)cc(F)c1)C(=O)N[C@H](C(=O)OC(C)(C)C)c1ccccc1 [DAPT, N—[N-(3,5-Difluorophenacetyl)-L-alanyl]-S-phenylglycine t-butyl ester]
effect on osteogenic potential exhibited by DRCs (DRCs): reduced | effect on Jagged stimulation of osteogenesis (MASCs [1]; absence of BMP6): completely reversed | effect on Jagged stimulation of osteogenesis (MASCs [1]; presence of BMP6 500 ng/ml): strongly reduced | effect on stimulation of adipogenesis by BMP6 (MASCs [2]; DAPT with BMP6): enhanced further | effect on adipogenesis of MASCs (MASCs [2]; DAPT, no BMP6): slightly enhanced adipogenesis

Jag1/Fc: fusion between the extracellular domain of the rat Jagged1 protein and the Fc region of human IgG, clustered with goat anti-human Fc
expression of Wisp1 (WISP1): up-regulated | expression of CCND1 (cyclin D1) (CCND1): not altered | expression of Hes1 (HES1): up-regulated | expression of HR (HR): up-regulated | dose dependence of stimulation of osteogenesis (MASCs [1]; additional experiments): dose-dependent | effect on osteogenesis of MASCs (Alizarin Red) (MASCs [1]; clustered Jag1/Fc 5 μg/ml, absence or presence of BMP6, 10 days): osteogenesis was strongly enhanced | number of genes with activated expression (two-fold or more) [3]: 18 genes | number of genes with reduced expression (50% or less) [3]: three | effect on BMP6-enhanced adipogenesis of MASCs (MASCs [2]; Jag with BMP6): reversed | effect on adipogenesis of MASCs (MASCs [2]; Jag with BMP6 and DAPT): no effect | effect on adipogenesis of MASCs (MASCs [2]; clustered Jag1/Fc, absence of DAPT or BMP6): blocked

B1: BMP-6: recombinant human bone morphogenetic protein 6 (protein, UniProt P22004 375-513, looked up)
Bone morphogenetic protein 6: SASSRRRQQSRNRSTQSQDVARVSSASDYNSSELKTACRKHELYVSFQDLGWQDWIIAPKGYAANYCDGECSFPLNAHMNATNHAIVQTLVHLMNPEYVPKPCCAPTKLNAISVLYFDDNSNVILKKYRNMVVRACGCH
effect of BMP-6 on degree of osteogenic differentiation [4]: increased the degree of osteogenic differentiation | effect on adipogenesis of MASCs (MASCs [2]; BMP6 in the differentiation medium): strongly enhanced adipogenesis | effect of BMP-6 on adipocytic differentiation of MASCs [5]: enhanced
